Several values for one entry are separate records, joined by “and”; a condition that tells them apart may be missing. Equal entries are not always repeated.
Experiments:
BT-474 = conditions: 72 h
Summary of the method: (§1)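 The reported EC50 was fitted from percent-inhibition dose-response curves and censored at the highest concentration. Breast cancer cell lines (20 µl suspension) were added to 384-well plates containing compound in 5 µl medium and incubated 72 h, and viability was read with 2.5 µl CellTiter-Blue over 2 h at 37 °C at 560/590 nm. Each plate was normalised to vehicle and a positive kill control and checked by Z'-factor, and rows with zero drug sensitivity score were dropped.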

MDA-MB-468 = conditions: 72 h
Summary of the method: as §1

BT-549 = conditions: 72 h
Summary of the method: as §1

Hs578T = conditions: 72 h
Summary of the method: as §1

SK-BR-3 = conditions: 72 h
Summary of the method: as §1

MDA-MB-436 = conditions: 72 h
Summary of the method: as §1

MFM-223 = conditions: 72 h
Summary of the method: as §1

CAL-120 = conditions: 72 h
Summary of the method: as §1

MDA-MB-231 = conditions: 72 h
Summary of the method: as §1

HCC1143 = conditions: 72 h
Summary of the method: as §1

HCC1937 [1] = conditions: 72 h
Summary of the method: as §1

HCC1599 = conditions: 72 h
Summary of the method: as §1

CAL-148 [2] = conditions: 72 h
Summary of the method: as §1

MDA-MB-453 [3] = assay: normalised viability (% of control), CellTiter-Blue; higher = more viable cells (about 100 = DMSO control); conditions: incubation time: 72 h
Protocol: (§2)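 DSRT, CellTiter-Blue viability, 72 h incubation. Signal is normalised to DMSO and benzethonium chloride controls. Value is the normalised response at dose 9.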

DU-4475 = assay: as above; conditions: incubation time: 72 h
Protocol: as §2

CAL-51 [4] = assay: as above; conditions: incubation time: 72 h
Protocol: as §2

CAL-85-1 [5] = assay: as above; conditions: incubation time: 72 h
Protocol: as §2

CAL-148 [6] = assay: as above; conditions: incubation time: 72 h
Protocol: as §2

HDQ-P1 = assay: as above; conditions: incubation time: 72 h
Protocol: as §2

MDA-MB-453 [7] = conditions: 72 h
Summary of the method: (§3)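 EC50 was fitted from dose-response curves and censored at the highest concentration tested. To build those curves, breast cancer cell lines (20 µl suspension) were seeded into 384-well plates containing compound at 5 concentrations in 10-fold steps over a compound-specific 10,000-fold range and incubated for 72 h. Readouts were CellTox Green fluorescence (485/520 nm) for cell death and then CellTiter-Glo luminescence for viability, with each plate normalised to 0.1 % DMSO and a positive kill control.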

CAL-51 [8] = conditions: 72 h
Summary of the method: as §3

MCF-10A = conditions: 72 h
Summary of the method: as §3

HCC1937 [9] = conditions: 72 h; remark: listed apart in the source
Summary of the method: as §3

CAL-85-1 [10] = conditions: 72 h
Summary of the method: as §3

CAL-148 [11] = conditions: 72 h; remark: listed apart in the source
Summary of the method: as §3

CAL-85-1 [12] = conditions: 72 h; remark: listed apart in the source
Protocol: (§4)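 Drug sensitivity and resistance testing (DSRT) of breast cancer cell lines in 384-well plates, 5 concentrations in 10-fold dilutions over a compound-specific 10,000-fold range. After 72 h, cytotoxicity was read by CellTox Green fluorescence and viability by CellTiter-Glo luminescence (multiplexed), normalised to DMSO and benzethonium chloride controls. EC50 is the inflection point of the fitted dose-response curve (bottom asymptote free, so it can be relative for partial curves) and is censored at the highest tested concentration. Rows with DSS 0 (no meaningful response) were excluded.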

CAL-148 [13] = conditions: 72 h; remark: listed apart in the source
Protocol: as §4

Row | EC50, CellTiter-Blue viability (BT-474) [nM] | EC50, CellTiter-Blue viability (MDA-MB-468) [nM] | EC50, CellTiter-Blue viability (SK-BR-3) [nM] | EC50, CellTiter-Blue viability (MDA-MB-436) [nM] | EC50, CellTiter-Blue viability (MDA-MB-231) [nM] | Structure (SMILES) | EC50, CellTiter-Blue viability (Hs578T) [nM] | EC50, CellTiter-Blue viability (CAL-120) [nM] | normalised viability (MDA-MB-453 [3]) | normalised viability (DU-4475) | normalised viability (CAL-51 [4]) | normalised viability (CAL-85-1 [5]) | normalised viability (CAL-148 [6]) | normalised viability (HDQ-P1) | also measured
1 | 1850 | 5610 | 7750 | 9110 | 4160 | COC(=O)c1ccc2c(c1)NC(=O)/C2=C(\Nc1ccc(N(C)C(=O)CN2CCN(C)CC2)cc1)c1ccccc1 [BIBF 1120] | 7050 | 3640 |  |  |  |  |  |  | EC50, CellTiter-Blue viability (BT-549): 5430 nM; EC50, CellTiter-Blue viability (MFM-223): 555 nM
2 | 1180 | 2330 | 257 | 4190 | 1910 | Nc1cc(C(F)(F)F)c(-c2cc(N3CCOCC3)nc(N3CCOCC3)n2)cn1 [BKM-120] | 3010 | 887 |  |  |  |  |  |  | EC50, CellTiter-Blue viability (HCC1143): 2350 nM; EC50, CellTiter-Blue viability (BT-549): 1570 nM; EC50, CellTiter-Blue viability (HCC1937 [1]): 2090 nM; EC50, CellTiter-Blue viability (HCC1599): 517 nM; EC50, CellTiter-Blue viability (MFM-223): 1360 nM; EC50, CellTiter-Blue viability (CAL-148 [2]): 1710 nM
3 |  |  |  |  |  | O=C(/C=C/c1cccc(S(=O)(=O)Nc2ccccc2)c1)NO [Belinostat] (10000 nM) |  |  | 1.48% | 4.25% | 3.47% | 7.19% | 0.35% | 23% | 
4 |  |  |  |  |  | O=P1(N(CCCl)CCCl)NCCCO1 (stereo not drawn) [Cyclophosphamide] (40000 nM) |  |  | 117% | 94.4% | 101% | 98.4% | 110% | 120% | 
5 |  |  |  |  |  | CNC(=O)c1ccc(N2C(=S)N(c3ccc(C#N)c(C(F)(F)F)c3)C(=O)C2(C)C)cc1F [Enzalutamide] |  |  |  |  |  |  |  |  | EC50, CellTiter-Glo (MDA-MB-453 [7]): > 10000 nM; EC50, CellTiter-Glo (CAL-51 [8]): 48.6 nM
6 |  |  |  |  |  | C=C1C[C@@H]2[C@H](CC[C@]3(C)C(=O)CC[C@@H]23)[C@@]2(C)C=CC(=O)C=C12 [Exemestane] (10000 nM) |  |  | 81% | 88.9% | 105% | 99.1% | 104% | 103% | 
7 | 1000 | 808 | 1580 |  | > 10000 | COc1cc2ncnc(Nc3ccc(F)c(Cl)c3)c2cc1OCCCN1CCOCC1 [Gefitinib] | 1060 | > 10000 |  |  |  |  |  |  | EC50, CellTiter-Blue viability (HCC1599): 775 nM; EC50, CellTiter-Glo (MCF-10A): 84.2 nM; EC50, CellTiter-Glo (HCC1937 [9]): > 10000 nM; EC50, CellTiter-Glo (CAL-85-1 [10]): 714 nM; EC50, CellTiter-Glo (CAL-148 [11]): 788 nM; EC50, CellTox Green (CAL-85-1 [12]): 2900 nM; EC50, CellTox Green (CAL-148 [13]): > 10000 nM; EC50, CellTiter-Blue viability (CAL-148 [2]): 1440 nM
8 |  |  |  |  |  | COc1cc2ncnc(Nc3ccc(F)c(Cl)c3)c2cc1OCCCN1CCOCC1 [Gefitinib] (10000 nM) |  |  | 29.8% and 23% | 102% and 105% | 82.1% and 81.6% | 45% and 40.7% | 69.2% and 65% | 59.6% and 51.1% | 

Row | Structure (SMILES) | EC50, CellTiter-Blue viability (BT-474) [nM] | EC50, CellTiter-Blue viability (MDA-MB-468) [nM] | EC50, CellTiter-Blue viability (SK-BR-3) [nM] | EC50, CellTiter-Blue viability (MDA-MB-436) [nM] | EC50, CellTiter-Blue viability (MDA-MB-231) [nM] | EC50, CellTiter-Blue viability (Hs578T) [nM] | EC50, CellTiter-Blue viability (CAL-120) [nM] | normalised viability (MDA-MB-453 [3]) | normalised viability (DU-4475) | normalised viability (CAL-51 [4]) | normalised viability (CAL-85-1 [5]) | normalised viability (CAL-148 [6]) | normalised viability (HDQ-P1) | also measured
9 | O=P1(N(CCCl)CCCl)NCCCO1 (stereo not drawn) [Cyclophosphamide] |  |  |  | > 40000 |  |  |  |  |  |  |  |  |  | 

— the supplement of paper PMC4862054
